What was measured:
HepG2 = test: Cytotoxicity against human HepG2 cells after 72 hrs by XTT assay; type: functional, cell-based; details: HepG2, 72 h
DU-145 = test: Cytotoxicity against human DU145 cells after 72 hrs by XTT assay; type: functional, cell-based; details: DU-145, 72 h

SMILES	IC50 (HepG2)	IC50 (DU-145)
CC(=O)N(C(=O)c1ccccc1)N(C(C)=O)c1nc(-c2ccccc2)c[se]1	> 58.6 µM	> 58.6 µM
CC(=O)N(C(=O)c1ccc(Cl)cc1)N(C(C)=O)c1nc(C)c[se]1	> 62.7 µM	> 62.7 µM
CC(=O)N(C(=O)c1ccc(Cl)cc1)N(C(C)=O)c1nc(-c2ccccc2)c[se]1	> 54.3 µM	> 54.3 µM
CC(=O)N(/N=C/c1ccc(Cl)cc1)c1nc(CCl)c[se]1	> 66.7 µM	64.7 µM
CC(=O)N(/N=C/c1ccc(Cl)cc1)c1nc(-c2ccccc2)c[se]1	> 62.1 µM	> 62.1 µM
CCOC(=O)c1[se]c(N(/N=C/c2ccc(Cl)cc2)C(C)=O)nc1C	55.1 µM	> 60.6 µM
COc1ccc(/C=N/N(C(C)=O)c2nc(C)c[se]2)cc1	> 74.4 µM	> 74.4 µM
COc1ccc(/C=N/N(C(C)=O)c2nc(-c3ccccc3)c[se]2)cc1	> 62.8 µM	> 62.8 µM
CC(=O)N(/N=C/c1csc(-c2ccccc2)n1)c1nc(CCl)c[se]1	19.3 µM	19.6 µM
CC(=O)c1[se]c(N(/N=C/c2csc(-c3ccccc3)n2)C(C)=O)nc1C	29.4 µM	31.3 µM
NC(=[Se])NNC(=O)c1ccc(Cl)cc1	10.7 µM	7.59 µM
Cc1c[se]c(NNC(=O)c2ccccc2)n1	> 89.2 µM	> 89.2 µM
O=C(NNc1nc(-c2ccccc2)c[se]1)c1ccccc1	> 73 µM	> 73 µM
Cc1c[se]c(NNC(=O)c2ccc(Cl)cc2)n1	> 79.5 µM	> 79.5 µM
O=C(NNc1nc(-c2ccccc2)c[se]1)c1ccc(Cl)cc1	62.9 µM	65.1 µM
CC(=O)N(C(=O)c1ccccc1)N(C(C)=O)c1nc(C)c[se]1	> 68.6 µM	> 68.6 µM

SMILES	IC50 (HepG2)	IC50 (DU-145)
NC(=[Se])N/N=C/c1ccc(Cl)cc1	13 µM	8.63 µM
COc1ccc(/C=N/NC(N)=[Se])cc1	11.3 µM	30.3 µM
NC(=[Se])N/N=C/c1csc(-c2ccccc2)n1	9.18 µM	6.14 µM
Cc1c[se]c(N/N=C/c2ccc(Cl)cc2)n1	56.5 µM	49.4 µM
ClCc1c[se]c(N/N=C/c2ccc(Cl)cc2)n1	> 75.1 µM	> 75.1 µM
Clc1ccc(/C=N/Nc2nc(-c3ccccc3)c[se]2)cc1	42.5 µM	54.2 µM
CCOC(=O)c1[se]c(N/N=C/c2ccc(Cl)cc2)nc1C	52.8 µM	47.7 µM
COc1ccc(/C=N/Nc2nc(C)c[se]2)cc1	83.2 µM	> 85 µM
COc1ccc(/C=N/Nc2nc(-c3ccccc3)c[se]2)cc1	50.5 µM	50.9 µM
ClCc1c[se]c(N/N=C/c2csc(-c3ccccc3)n2)n1	18.8 µM	16.4 µM
CC(=O)c1[se]c(N/N=C/c2csc(-c3ccccc3)n2)nc1C	61.3 µM	49.9 µM
CC(=O)N(/N=C/c1ccc(Cl)cc1)c1nc(C)c[se]1	59.2 µM	60.6 µM
NC(=[Se])NNC(=O)c1ccccc1 [BENZOYL-SELENOSEMICARBAZIDE]	34.8 µM	35.1 µM
NC(=[Se])N/N=C/c1ccccc1 [BENZYLIDEN-SELENOSEMICARBAZIDE]	39.1 µM	40.8 µM
COc1cccc2c1C(=O)c1c(O)c3c(c(O)c1C2=O)C[C@@](O)(C(=O)CO)C[C@@H]3O[C@H]1C[C@H](N)[C@H](O)[C@H](C)O1 [DOXORUBICIN]	4.89 µM	3.27 µM

— ChEMBL document CHEMBL3045567, “Heterocycles 23: Synthesis, characterization and anticancer activity of new hydrazinoselenazole derivatives” (Med Chem Res, 2013)
